How the values were obtained:
Format in all cases: cell-based, human
[1] = tested on: CD4+ T cells; assay: Transwell migration assay; settings: CCL-20 5 ng/ml in lower chamber, 4 h
Procedure: (A, B) IL-22 is expressed by immune cells in colon cancer tissues. Different cell populations were sorted from colon cancer tissues and IL-22 expression was measured by real time PCR. (5-10 donors, P<0.05). (C) IL-22 is spontaneously released by different immune cell populations in colon cancer tissues. Different CD45^+ immune subsets (10^6/ml) were sorted from colon cancer and blood, and cultured for 12 hours. IL-22 was detected via ELISA. (n=5, *P<0.05). (D, E) IL-22 is expressed by activated CD4^+ T cells in colon cancer tissues. CD45^+ subsets (10^6/ml) were sorted from colon cancer and blood, and were activated with anti-CD3 and anti-CD28 for 2 days. IL-22 was detected with ELISA (D) or intracellular staining (E). (n=5, *P<0.05). (F, G) CCR6^+CD4^+ T cells express IL-22. CD4^+ T cells were sorted based on CCR6 expression and activated with anti-CD3 and anti-CD28 and antigen presenting cells. IL-22 mRNA was detected by real time PCR (F) and protein by ELISA (G). (5 different donors, P<0.05). […] IL-22 expression was quantified with real-time PCR in the migrated and non-migrated cells. Results are expressed as the mean relative expression (H). The phenotype of migrated cells, non-migrated cells and control (before migration) was analyzed by FACS (I). […] The mRNA of stem cell core genes was detected by real-time PCR after 6 hours (K) and ALDH activity was detected by FACS after 48 hours (L). […]

[2] = tested on: colon cancer cells; assay: Colon cancer cell proliferation (Ki67 FACS, H3 thymidine incorporation, cell counting); settings: H3 thymidine incorporation
Text: A. GSEA analysis identifies proliferation pathways have positive correlation with IL-22. B. Cell proliferation maker Ki67 was detected by FACS. C. H^3 Thymidine Incorporation was used to detect the function of IL-22 in cell proliferation. D. Cell number was counted after stimulated with IL-22. E. Cells isolated from colon cancer tissue (Tumor cells and Leukocytes) were stimulated with a-CD3 and […] for 3 days, and supernatant mixed with or without anti-IL-22 antibody was co-cultured with DLD1 cells for 24 h to test cell proliferation. F. Cell cyclin-dependent kinase and kinase inhibitors were analyzed by Real-Time PCR.
A, C. Cell proliferation was analyzed using H^3 Thymidine Incorporation. B. The level of total H3K79m2 and H3K27me3 was measured by Western Blot. D. PcG proteins of EZH2, EED, SUZ12 was increased with IL-22(20 ng/ml) treatment. E. EZH2, SUZ12 and EED was detected by Western Blot after IL-22 treated for 24 h or 48 h. F. EZH2 inhibitor DZNep reduced cell proliferation. G.H. The efficiency of EZH2 and SUZ12 knock down was tested by Western Blot. I.J. Cell proliferation was analyzed using H^3 Thymidine Incorporation after knock down of EZH2 and SUZ12. K.L. Relative expression of cyclin-dependent kinase inhibitors (p16 and p18) in shEZH2, shSUZ12 and Dznep treated cells after IL-22 treatment. M. The level of H3K27me3 in the promoter of p16 and p18 was analyzed by ChIP assay.
A. The protein level of phosphorylated STAT3, STAT1 and STATS were activated by IL-22. B. The effect of STAT3 knock down. C. The effect of IL-22 on cell proliferation was analyzed using H^3 Thymidine Incorporation in Stat3 knock down cells. D. Knock down of STAT3 reduced the expression of EZH2 and SUZ12. E. Based on the ENCODE STAT3-ChIP-Seq data base, STAT3 occupancy on the promoter areas of SUZ12 and EED is shown. F. SUZ12/EED DNA was detected by ChIP assay using an antibody against STAT3, c-fos was used as a positive control.
(§1) Three primary colon cancer cell lines (SB, WR, JR) were established from fresh colon tissues. These primary colon cancer cells and DLD1 (ATCC) were studied. Colon cancer cells were treated with recombinant IL-22 (R&D) for different time points. The EZH2 inhibitor DZNep was added in conventional or sphere culture (see, e.g., Kryczek, I., et al., (2012) International journal of cancer 130, 29-39). Tumor cell sphere formation and gene expression were examined (see, e.g., Kryczek, I., et al., (2012) International journal of cancer 130, 29-39).

[3] = tested on: primary colon cancer cell line SBCA; assay: Proliferation of primary colon cancer cell line SBCA
Procedure: FIG. 21A-E A. Dot1L/H3K79me2 inhibitor EZP004777 (10 uM) had no effect on SUZ12 expression but reduce Sox2. B. EZP004777 had no effect on primary colon cancer cell line SBCA. C. EZH2 inhibitor DZNep reduced SBCA cell proliferation. D. SUZ12 knockdown reduced H3K27m3 level. E. Effect of I1-22 on tumor sphere assay was analyzed in shEZH2, shSUZ12 and Dznep treated cells.
as §1

CCL20: the ligand for CCR6; CCL-20 (5 ng/ml, R&D)
T cell migration [1]: efficiently migrated

Nc1nccc2c1ncn2C1C=C(CO)C(O)C1O (stereo not drawn) [DZNep, reference compound]
colon cancer cell proliferation induced by IL-22 [2]: significantly blocked
SBCA cell proliferation [3]: reduced
